Reference: patent publication US11008323B2, “Substituted tricyclic 1,4-benzodiazepinone derivatives as allosteric modulators of group II metabotropic glutamate receptors” (Domain Therapeutics, priority 2015, dated 2021)
Values belong to the compound of their own block, whether it stands above or below them.

Tests used:
human mGluR3 (hmGluR3) = biological target: T1, human mGluR3 (hmGluR3) (Homo sapiens, UniProt Q14832); assay: Human mGluR3 positive allosteric modulator evaluation using Ca++ functional assay; type: cell-based; conditions: hmGluR3 transiently over-expressed in HEK-293 cells; stimulated by EC50 glutamate concentration; intracellular Ca2+ (Fluo4AM, FLIPR Tetra)
T1 construct: expressed in transfected cells; host or cells: HEK-293 cells, transient co-transfection by electroporation
In short: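 Calcium flux (Fluo4, ex 485/em 525 nm) recorded first 10 min with compound alone, then 3 min after an EC50 glutamate challenge, giving agonist and PAM EC50 from 20-concentration sigmoidal fits. Receptor was transiently co-transfected in HEK-293 with chimeric G protein and glutamate transporters.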

striatal primary neurons = assay: NMDA-induced neurotoxicity assay on striatal primary neurons (MTT test); type: cell-based, mouse; conditions: 24 hours
Protocol: Primary mouse neurons were incubated with vehicle or NMDA (60 μM)+vehicle or example 63 or LY379268 (mixed mGluR2/3 agonist used as positive control) for 24 hours. Tests were performed in triplicate. Neuron viability was measured using a MTT test.

cortical primary neurons = assay: NMDA-induced neurotoxicity assay on cortical primary neurons (MTT test); type: cell-based, mouse; conditions: 24 hours
Protocol: Primary mouse neurons were incubated with vehicle or NMDA (60 μM)+vehicle or example 207 or LY379268 (mixed mGluR2/3 agonist used as positive control) for 24 hours. Tests were performed in triplicate. Neuron viability was measured using a MTT test.

T1 sequence (Q14832 23-879): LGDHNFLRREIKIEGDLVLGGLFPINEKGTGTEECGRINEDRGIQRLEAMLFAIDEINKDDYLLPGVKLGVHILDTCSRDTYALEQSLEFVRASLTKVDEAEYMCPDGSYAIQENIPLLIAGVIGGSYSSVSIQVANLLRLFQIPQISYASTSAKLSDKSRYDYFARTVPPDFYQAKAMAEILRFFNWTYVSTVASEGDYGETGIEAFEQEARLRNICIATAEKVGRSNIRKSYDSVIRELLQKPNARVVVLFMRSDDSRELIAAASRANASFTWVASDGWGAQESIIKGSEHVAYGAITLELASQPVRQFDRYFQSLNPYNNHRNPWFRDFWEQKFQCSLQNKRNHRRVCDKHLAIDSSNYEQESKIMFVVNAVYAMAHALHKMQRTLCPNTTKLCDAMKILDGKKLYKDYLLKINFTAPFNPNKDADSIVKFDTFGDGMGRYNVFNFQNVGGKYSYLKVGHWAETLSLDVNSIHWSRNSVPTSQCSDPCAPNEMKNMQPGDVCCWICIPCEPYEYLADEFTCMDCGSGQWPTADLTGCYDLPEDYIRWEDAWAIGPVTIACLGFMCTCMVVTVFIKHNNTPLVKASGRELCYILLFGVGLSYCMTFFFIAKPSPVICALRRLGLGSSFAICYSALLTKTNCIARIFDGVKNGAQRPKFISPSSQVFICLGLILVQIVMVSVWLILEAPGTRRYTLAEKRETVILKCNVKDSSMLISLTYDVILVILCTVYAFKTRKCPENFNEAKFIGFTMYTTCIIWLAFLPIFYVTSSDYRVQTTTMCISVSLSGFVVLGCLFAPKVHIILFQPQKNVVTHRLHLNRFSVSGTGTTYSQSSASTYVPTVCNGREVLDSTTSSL

EC50 (human mGluR3 (hmGluR3)): < 100 nM | melting point: 148 to 156 °C
SMILES: CN1C(=O)c2cccn2-c2cc(-c3ccc(F)cn3)ccc2C12CC2 [Example 63, 5-Methyl-9-(5-fluoropyridin-2-yl)-spiro[benzo[f]pyrrolo[1,2-a][1,4]diazepine-6,1′-cyclopropan]-4(5H)-one]
toxicity induced by NMDA (neuroprotection), striatal primary neurons (striatal primary neurons; NMDA 60 μM, effect tending to disappear at 30 μM): reduces in a dose-dependent manner the toxicity induced by NMDA up to 10 μM | toxicity on striatal primary neuron viability (striatal primary neurons; alone, in absence of NMDA challenge, 30 nM to 30 μM): no toxicity

SMILES: CN[C@H](CC(=O)O)C(=O)O [NMDA, N-methyl-D-aspartate]
reduction of the neuron viability, striatal primary neurons (striatal primary neurons; NMDA 60 μM + vehicle): ~70% | reduction of the neuron viability, cortical primary neurons (cortical primary neurons; NMDA 60 μM + vehicle): ~50%

SMILES: N[C@@]1(C(=O)O)CO[C@H]2[C@H](C(=O)O)[C@H]21 [LY379268]
NMDA-induced toxicity, striatal primary neurons (striatal primary neurons; at 1 μM, NMDA 60 μM): decreases NMDA-induced toxicity | toxicity alone, striatal primary neurons (striatal primary neurons; reference alone): no toxicity alone | NMDA-induced toxicity, cortical primary neurons (cortical primary neurons; at 1 μM, NMDA 60 μM): decreases NMDA-induced toxicity | toxicity alone, cortical primary neurons (cortical primary neurons; reference alone): no toxicity alone
